Results published in patent US12157730B2, “Heteroaryl derivative, method for producing same, and pharmaceutical composition comprising same as effective component” (VORONOI INC., priority 2019, dated 2024).

Biological target: T1, Ba/F3 cell EGFR Exon20 ins NPH (Homo sapiens, UniProt P00533, INS773NPH)
T1 construct: expressed in transfected cells; host or cells: Ba/F3
Test: Ba/F3 cell proliferation suppression, EGFR Exon20 ins NPH
Assay type: cell-based
Details: GI50 class; Ba/F3 cell line with NPH inserted at Exon20 of EGFR; 72 hours
Summary of the method: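 Cells were seeded 24 h before dosing and then treated for 72 hours with compound at final concentrations of 0.3 nM to 50 um. Live cells were measured by CellTiter-Glo luminescence, and GI50 values were derived from growth ratio relative to control across three repeats.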

C=CC(=O)Nc1cc(Nc2cc(N3OCC[C@@H]3c3cccc(C#N)c3)ncn2)c(OC)cc1N1CCC(N2CCN(C3CC3)CC2)CC1 [Example 141, N-(5-((6-((R)-3-(3-cyanophenyl)isoxazolidine-2-yl)pyrimidine-4-yl)amino)-2-(4-(4-cyclopropylpiperazine-1-yl)piperidine-1-yl)-4-methoxyphenyl) acrylamide]
Ba/F3 (NPH) Activity: A (GI50 < 50 nM)

C=CC(=O)Nc1cc(Nc2cc(N3OCC[C@@H]3c3cc(F)cc(F)c3)ncn2)c(OC)cc1N1CCC(N2C[C@@H]3C[C@H]2CN3C)CC1 [Example 260, N-(5-((6-((R)-3-(3,5-difluorophenyl)isoxazolidine-2-yl)pyrimidine-4-yl)amino)-4-methoxy-2-(4-((1S,4S)-5-methyl-2,5-diazabicyclo[2.2.1]heptane-2-yl)piperidine-1-yl)phenyl)acrylamide]
Ba/F3 (NPH) Activity: A (GI50 < 50 nM)

C=CC(=O)Nc1cc(Nc2cc(N3OCC[C@@H]3c3cccc(Cl)c3Cl)ncn2)c(OC)cc1N1CCC(N2CC[C@@H](N(C)C)C2)CC1 [compound 610, N-(5-((6-((R)-3-(2,3-dichlorophenyl)isoxazolidine-2-yl)pyrimidine-4-yl)amino)-2-(4-((R)-3-(dimethylamino)pyrolidine-1-yl)piperidine-1-yl)-4-methoxyphenyl) acrylamide]
Ba/F3 (NPH) Activity: B (50 nM ≤ GI50 < 500 nM)

C=CC(=O)Nc1cc(Nc2cc(N3OCC[C@@H]3c3cc(F)cc(F)c3)ncn2)c(OC)cc1N1CCC(N2CCN(CCN(C)C)CC2)CC1 [compound 753, N-(5-((6-((R)-3-(3,5-difluorophenyl)isoxazolidine-2-yl)pyrimidine-4-yl)amino)-2-(4-(4-(2-(dimethylamino)ethyl)piperazine-1-yl)piperidine-1-yl)-4-methoxyphenyl) acrylamide]
Ba/F3 (NPH) Activity: A (GI50 < 50 nM)

C=CC(=O)Nc1cc(Nc2cc(N3OCC[C@@H]3c3ccc(Cl)c(Cl)c3)ncn2)c(OC)cc1N1CCN(C2CC2)CC1 [compound 673, N-(2-(4-cyclopropylpiperazine-1-yl)-5-((6-((R)-3-(3,4-dichlorophenyl)isoxazolidine-2-yl)pyrimidine-4-yl)amino)-4-methoxyphenyl) acrylamide]
Ba/F3 (NPH) Activity: A (GI50 < 50 nM)

C=CC(=O)Nc1cc(Nc2cc(N3OCC[C@H]3Cc3ccccc3)ncn2)c(OC)cc1N1CCN(C2CCN(C)CC2)CC1 [compound 974, N-(5-((6-((R)-3-benzylisoxazolidine-2-yl)pyrimidine-4-yl)amino)-4-methoxy-2-(4-(1-methylpiperidine-4-yl)piperazine-1-yl)phenyl)acrylamide]
Ba/F3 (NPH) Activity: C (500 nM ≤ GI50 < 5000 nM)

C=CC(=O)Nc1cc(Nc2cc(N3OCC[C@@H]3c3ccc(F)c(F)c3F)ncn2)c(OC)cc1N(C)CCN(C)C [compound 571, N-(2-((2-(dimethylamino)ethyl) (methyl)amino)-4-methoxy-5-((6-((R)-3-(2,3,4-trifluorophenyl)isoxazolidine-2-yl)pyrimidine-4-yl)amino)phenyl) acrylamide]
Ba/F3 (NPH) Activity: A (GI50 < 50 nM)

C=CC(=O)Nc1cc(Nc2cc(N3OCC[C@@H]3c3cc(F)ccc3F)ncn2)c(OC)cc1N1CCC(N2CCOCC2)CC1 [compound 766, N-(5-((6-((R)-3-(2,5-difluorophenyl)isoxazolidine-2-yl)pyrimidine-4-yl)amino)-4-methoxy-2-(4-morpholinopiperidine-1-yl)phenyl)acrylamide]
Ba/F3 (NPH) Activity: A (GI50 < 50 nM)

C=CC(=O)Nc1cc(Nc2cc(N3OCC[C@@H]3c3cccc(F)c3)ncn2)c(OC)cc1N1CC[C@@H](N2CCOCC2)C1 [compound 323, N-(5-((6-((R)-3-(3-fluorophenyl)isoxazolidine-2-yl)pyrimidine-4-yl)amino)-4-methoxy-2-((R)-3-morpholinopyrolidine-1-yl)phenyl) acrylamide]
Ba/F3 (NPH) Activity: A (GI50 < 50 nM)

C=CC(=O)Nc1cc(Nc2cc(N3OCC[C@@H]3c3cccc4ccccc34)ncn2)c(OC)cc1N1CCN(CC)CC1 [compound 444, N-(2-(4-ethylpiperazine-1-yl)-4-methoxy-5-((6-((R)-3-(naphthalene-1-yl)isoxazolidine-2-yl)pyrimidine-4-yl)amino)phenyl)acrylamide]
Ba/F3 (NPH) Activity: B (50 nM ≤ GI50 < 500 nM)

C=CC(=O)Nc1cc(Nc2cc(N3OCC[C@@H]3Cc3cccc(N(C)C)c3)ncn2)c(OC)cc1N1CCN(C2CC2)CC1 [compound 1043, N-(2-(4-cyclopropylpiperazine-1-yl)-5-((6-((S)-3-(3-(dimethylamino)benyl)isoxazolidine-2-yl)prymidine-4-yl)amino)-4-methoxyphenyl) acrylamide]
Ba/F3 (NPH) Activity: C (500 nM ≤ GI50 < 5000 nM)

C=CC(=O)Nc1cc(Nc2cc(N3OCC[C@@H]3c3ccc(F)cc3F)ncn2)c(OC)cc1N1C[C@@H]2C[C@H]1CN2CC [compound 354, N-(5-((6-((R)-3-(2,4-difluorophenyl)isoxazolidine-2-yl)pyrimidine-4-yl)amino)-2-((1S,4S)-5-ethyl-2,5-diazabicyclo[2.2.1]heptane-2-yl)-4-methoxyphenyl) acrylamide]
Ba/F3 (NPH) Activity: A (GI50 < 50 nM)

C=CC(=O)Nc1cc(Nc2cc(N3OCC[C@@H]3c3cccc(Cl)c3Cl)ncn2)c(OC)cc1N1CCN(C)CC1 [compound 481, N-(5-((6-((R)-3-(2,3-dichlorophenyl)isoxazolidine-2-yl)pyrimidine-4-yl)amino)-4-methoxy-2-(4-methylpiperazine-1-yl)phenyl)acrylamide]
Ba/F3 (NPH) Activity: A (GI50 < 50 nM)

C=CC(=O)Nc1cc(Nc2cc(N3OCC[C@@H]3c3ccc4ccccc4c3)ncn2)c(OC)cc1N1CCC(N2CCN(C)CC2)CC1 [compound 554, N-(4-methoxy-2-(4-(4-methylpiperazine-1-yl)piperidine-1-yl)-5-((6-((R)-3-(naphthalene-2-yl)isoxazolidine-2-yl)pyrimidine-4-yl)amino)phenyl)acrylamide]
Ba/F3 (NPH) Activity: B (50 nM ≤ GI50 < 500 nM)

C=CC(=O)Nc1cc(Nc2cc(N3OCC[C@@H]3c3ccc(F)c(Cl)c3)ncn2)c(OC)cc1N1CCOCC1 [compound 824, N-(5-((6-((R)-3-(3-chloro-4-fluorophenyl)isoxazolidine-2-yl)pyrimidine-4-yl)amino)-4-methoxy-2-morpholinophenyl) acrylamide]
Ba/F3 (NPH) Activity: A (GI50 < 50 nM)

C=CC(=O)Nc1cc(Nc2cc(N3OCC[C@@H]3c3ccc(F)cc3F)ncn2)c(OC)cc1N1CCC(N2C[C@@H]3C[C@H]2CN3CC)CC1 [compound 382, N-(5-((6-((R)-3-(2,4-difluorophenyl)isoxazolidine-2-yl)pyrimidine-4-yl)amino)-2-(4-((1S,4S)-5-ethyl-2,5-diazabicyclo [2.2.1]heptane-2-yl)piperidine-1-yl)-4-methoxyphenyl) acrylamide]
Ba/F3 (NPH) Activity: A (GI50 < 50 nM)

C=CC(=O)Nc1cc(Nc2cc(N3OCC[C@@H]3c3cc(F)cc(Cl)c3)ncn2)c(OC)cc1N1CCC(N2CCN(C3CC3)CC2)CC1 [Example 163, N-(5-((6-((R)-3-(3-chloro-5-fluorophenyl)isoxazolidine-2-yl)pyrimidine-4-yl)amino)-2-(4-(4-cyclopropylpiperazine-1-yl)piperidine-1-yl)-4-methoxyphenyl) acrylamide]
Ba/F3 (NPH) Activity: A (GI50 < 50 nM)

C=CC(=O)Nc1cc(Nc2cc(N3OCC[C@@H]3c3cccc(F)c3F)ncn2)c(OC)cc1N1CCN(C)C[C@H]1C [compound 885, N-(5-((6-((R)-3-(2,3-difluorophenyl)isoxazolidine-2-yl)pyrimidine-4-yl)amino)-2-((R)-2,4-dimethylpiperazine-1-yl)-4-methoxyphenyl) acrylamide]
Ba/F3 (NPH) Activity: A (GI50 < 50 nM)

C=CC(=O)Nc1cc(Nc2cc(N3OCC[C@@H]3c3ccc(F)c(Cl)c3)ncn2)c(OC)cc1N1CCC(N2C[C@H]3C[C@@H]2CO3)CC1 [Example 257, N-(2-(4-((1R,4R)-2-oxa-5-azabicyclo[2.2.1]heptane-5-yl)piperidine-1-yl)-5-((6-((R)-3-(3-chloro-4-fluorophenyl)isoxazolidine-2-yl)pyrimidine-4-yl)amino)-4-methoxyphenyl) acrylamide]
Ba/F3 (NPH) Activity: A (GI50 < 50 nM)

C=CC(=O)Nc1cc(Nc2cc(N3OCC[C@@H]3Cc3cccc(Cl)c3F)ncn2)c(OC)cc1N1CCC(N2CCN(C3CC3)[C@H](C)C2)CC1 [compound 1019, N-(5-((6-((S)-3-(3-chloro-2-fluorobenzyl)isoxazolidine-2-yl)pyrimidine-4-yl)amino)-2-(4-((R)-4-cyclopropyl-3-methylpiperazine-1-yl)piperidine-1-yl)-4-methoxyphenyl) acrylamide]
Ba/F3 (NPH) Activity: A (GI50 < 50 nM)

C=CC(=O)Nc1cc(Nc2cc(N3OCC[C@@H]3c3cccc(F)c3Cl)ncn2)c(OC)cc1N1CCC(N(C)C)CC1 [compound 553, N-(5-((6-((R)-3-(2-chloro-3-fluorophenyl)isoxazolidine-2-yl)pyrimidine-4-yl)amino)-2-(4-(dimethylamino)piperidine-1-yl)-4-methoxyphenyl) acrylamide]
Ba/F3 (NPH) Activity: A (GI50 < 50 nM)

C=CC(=O)Nc1cc(Nc2cc(N3OCC[C@@H]3c3ccc(Cl)cc3)ncn2)c(OC)cc1N1CCC(N2CCOCC2)CC1 [compound 782, N-(5-((6-((R)-3-(4-chlorophenyl)isoxazolidine-2-yl)pyrimidine-4-yl)amino)-4-methoxy-2-(4-morpholinopiperidine-1-yl)phenyl)acrylamide]
Ba/F3 (NPH) Activity: A (GI50 < 50 nM)

C=CC(=O)Nc1cc(Nc2cc(N3OCC[C@@H]3c3cccc(C(F)(F)F)c3)ncn2)c(OC)cc1N1CCN(C2CC2)CC1 [compound 940, N-(2-(4-cyclopropylpiperazine-1-yl)-4-methoxy-5-((6-((R)-3-(3-(trifluoromethyl)pheyyl)isoxazolidine-2-yl)pyrimidine-4-yl)amino)phenyl) acrylamide]
Ba/F3 (NPH) Activity: B (50 nM ≤ GI50 < 500 nM)
